By IC50 is commonly meant the concentration that inhibits the measured activity by half.

This assay can be described thus: Antioxidant activity assessed as hydroxyl radical scavenging activity incubated for 60 mins in water bath by Fenton reaction-based method. In kind it is functional.

In the case of `CCCCC1OC(=O)c2cc(N3N=C(C)CC3=O)ccc21` (racemic), the IC50 worked out at 2.87 mM.
As for `CC1=NN(c2ccccc2)C(=O)C1` [EDARAVONE], the IC50 was found to be 3.57 mM.

Source of the values: ChEMBL document CHEMBL4680275, “From Seeds of Apium graveolens Linn. to a Cerebral Ischemia Medicine: The Long Journey of 3-n-Butylphthalide” (J Med Chem, 2020).
